Measured values reported in patent US9283297B2, “Sanitary article comprising a microbe-inhibiting composition” (SCA HYGIENE PRODUCTS AB, priority 2006, dated 2016).
“And” between values parts separate entries of the source, which are not always exact repeats. Identical values can stand only once.

How the values were obtained:
[1] = tested on: C. albicans; assay: Example 1 Screening II: Lactobacillus cell-free filtrate, turbidity; format: cell-based, Candida albicans; details: three times concentrated
Excerpt: (§1) Clinical isolates of Candida albicans and Candida glabrata were used as test strains. These were isolated from the vagina of women with vaginal candidiasis and from healthy females. Suspensions of lactobacilli grown in dMRSs broth (MRS broth without addition of sodium acetate) were centrifuged and sterile filtered. The filtrate is henceforth called Lactobacillus Cell-free Filtrate, LCF. A specified volume was transferred to wells of a micro titre plate and was let to air dry and thereafter resuspended in sterile distilled water to a concentration three times higher and transferred to 96-wells micro titre plates. Candida was added to all vials (three isolates of C. albicans and C. glabrata, respectively, were used). The inhibition was evaluated by visual observation of turbidity and graduated by two persons using a template on a scale from five to zero. The wells containing strong growth of Candida sp. in pure dMRSs-broth was graduated as five, while wells with no visual growth were graduated as zero.

[2] = tested on: C. glabrata; assay: as above; format: cell-based, Candida glabrata; details: three times concentrated
Excerpt: as §1

[3] = tested on: Candida albicans 702; assay: Test 4: agar plug test, zones with no growth of Candida; format: cell-based; details: for Zones around the plugs with no growth of Candida, Plug with LB931: ~10^7 LB 931 per plug
Excerpt: The purpose of this test was to evaluate the enhanced Candida inhibition from Na-acetate in combination with growing cells of Lactobacillus plantarum LB 931. Two plates were made with M17 agar and two with MRS agar. MRS medium (developed by De Man, Rogosa and Sharpe), is a growth medium commonly used for Lactobacillus. MRS agar from Merck contains 5 g sodium acetate per litre agar. M17 (Oxoid) is a similar commercial substrate for Lactobacillus but without the addition of sodium acetate. The agars were prepared as described on the packages. Lactobacillus plantarum LB931 was cultivated in MRS broth in 37° C. with 5% CO2 for 24 hours. Candida albicans 702 was cultivated in M17 broth at 37° C. for 24 hours. Holes (Ø10 mm) were punched in the plates and filled with 250 μl plugs of agar mixtures containing ˜10^7 LB 931 in MRS agar). The plates were left for 30 minutes and then incubated 24 hours at 37° C. with 5% CO2. Overnight culture of C. albicans in M17 broth was diluted 10 times and 100 μl was spread on the surface of each plate. The plates were then incubated for 24 hours at 37° C. As controls, holes (Ø10 mm) were filled with only MRS agar. The plates were evaluated in respect to Candida growth inhibition. Zones around the plugs with no growth of Candida were measured (Ø mm).

Row | Substance | inhibition of growth of C. albicans [1] | inhibition of growth of C. glabrata [2] | Zones around the plugs with no growth of Candida, Plug with LB931 ([3]; M17 agar in the Petri dish (without sodium acetate)) | Candida growth inhibition, in words ([3]; M17 agar plates (without sodium acetate)) | Zones around the plugs with no growth of Candida, Plug with LB931 ([3]; MRS agar in the Petri dish (contains 5 g sodium acetate per litre)) | Candida growth inhibition zones, in words ([3]; MRS agar plates (sodium acetate))
1 | Lactobacillus fermentum Ess-1 | comprehensive capacity to inhibit growth of Candida | comprehensive capacity to inhibit growth of Candida |  |  |  | 
2 | Lactobacillus plantarum LB 931 [LB931] |  |  | 0 Ø mm | substantially no inhibition of Candida | 18.8 Ø mm and 18.1 Ø mm | clear zones
